We go through three compounds from patent publication US5843696A, “Bioassay for toxic substances activated by metabolic enzyme system” (priority 1995, dated 1998).

Structures are written as SMILES.

Data set [1] concerns ATP-driven reduction of NAD+ to NADH by submitochondrial particles. Briefly: RET (reverse electron transfer) test linked to cytochrome P-450 liver microsome activation.
Text: The effect of this is to drive an endergonic reduction of NAD^+ to NADH as long as there is sufficient presence of ATP. For the process to be effective, therefore, there must be a sufficient quantity of NAD^+ in the sample preparation to serve as a substrate for conversion by competent enzymes. It may also be required that other enzymes such as glutamate, or alcohol or pyruvate dehydrogenases be added from exogenous sources in the event these materials are lost by rupture of the intact mitochondria during particle preparation.
For a reverse electron transport assay in which NAD^+ is to be reduced to NADH, one obvious requirement of the assay medium is NAD^+ to be a substrate. To supply a source of electrons, succinate is a preferred substrate which can be oxidized by the complex II enzymes. In order to couple the donor electrons from succinate conversion to NAD^+ reduction, it is necessary to block transport of the electron flow through complex III enzymes. This can be easily accomplished by adding antimycin, a known inhibitor of the complex III enzymes. With this combination, if the mitochondrial membranes and enzymes are otherwise functional, electrons would flow from coenzyme Q back through complex I enzymes to NAD^+. Thus NAD^+ would be reduced to NADH, as long as ATP was present to energize the conversion. Thus, the initiation of the reaction can be controlled by the timing of ATP addition.
The test system of data set [2] is NADH oxidase activity of submitochondrial particles (enzyme complexes I, III, and IV). Briefly: ETr (electron transfer) test linked to cytochrome P-450 liver microsome activation. The following applies: all tested concentrations; bovine serum albumin instead of microsomes.
For the next data set, the system named is NADH oxidation by SMP. It is filed as biochemical, beef. The following applies: at the tested concentrations; no cytochrome P-450 enzymes.

Take `c1ccc2cc3ccccc3cc2c1` [anthracene]: the “inhibition in RET test, secondary controls lacking liver microsomes” value in data set [1] (1 ppm, no liver microsomes) is “no inhibition”.

Regarding `Brc1ccccc1` [bromobenzine], the “inhibition relative to controls lacking the test compound” value in data set [1] (69 ppm, microsomes from phenobarbital-induced rats) worked out at 68%. For the same compound, the “inhibition in controls containing the test compound but lacking microsomes” value in data set [1] (69 ppm, no microsomes) was determined as 22%.

Take `ClC(Cl)(Cl)Cl` [carbon tetrachloride]: in data set [2], the “inhibition of NADH oxidase activity, secondary control lacking liver microsomes” value was determined as 4%. The “inhibition in conventional ETr protocol” value with NADH oxidation by SMP was “no inhibition”.
